Laboratory results reported in patent US10260079B2, “Method for producing ergothioneine by using soybean cake powder as nitrogen source in a seed medium” (TIANJIN INSTITUTE OF INDUSTRIAL BIOTECHNOLOGY, CHINESE …, priority 2014, dated 2019).
Values joined by “and” are separate entries in the source; they are usually repeats but may differ in a detail not shown here. Equal entries are not always repeated. Where two headings read alike, the source gives them in different places.

How the values were obtained:
[1] = system: Pleurotus ostreatus mycelia CGMCC No. 6232; experiment: Shake-flask fermentation, content of extracellular ergothioneine in the filtrate by HPLC
Method: Seed medium: corn flour 30 g/L, soybean meal powder 15 g/L, α-amylase 80 U/L, KH2PO4 3 g/L, MgSO4.7H2O 1.5 g/L, and a balance of water. The seed medium was sterilized at 121° C. for 20 min, and the liquid volume in a 500 mL triangular flask was 150 mL. […] A lawn of the strain CGMCC No. 6232 was picked from the PDA slant and inoculated into the seed medium, cultured on a shaker at 150 rpm at 25° C. for 4 days, to obtain a seed liquor. […] The obtained permeate was the test sample for detection of the content of extracellular ergothioneine in the filtrate. […] The solutions were filtered with 0.22 μm millipore filter to obtain the reference solutions. Qualitative and quantitative detection: L-ergothioneine reference solutions and the test samples were detected by HPLC under the same chromatographic conditions. The chromatograms of the test samples were compared with those of the L-ergothioneine reference solutions, and the chromatographic peak of L-ergothioneine in the test sample was identified based on the retention time. A standard curve was plotted with the concentrations of L-ergothioneine reference solutions and the corresponding peak areas. In the case that the sample load of the reference solution was identical with that of the test sample, an external standard method was used for quantification so as to calculate the content of ergothioneine in the test sample. The concentration of ergothioneine in the test sample was the concentration of ergothioneine in the fermentation broth. Detection conditions: the chromatographic column was Agilent Eclipse XDB-C18 (4.6×250 mm, 5 μm), with two chromatographic columns in series; the mobile phase was 1% methanol solution, the pH of which was adjusted to 5.0 using acetic acid-sodium acetate buffer; the detection wavelength was 257 nm; the flow rate was 0.7 mL/min; the column temperature was 25° C.; and the sample load was 5 μL. […] Pleurotus ostreatus mycelia CGMCC No. 6232 were subjected to fermentation and culture.

[2] = system: Pleurotus ostreatus mycelia CGMCC No. 6232; experiment: Shake-flask fermentation, total content of ergothioneine in the fermentation broth by HPLC; assay type: cell-based

Compound: O=C(O)CN(CCN(CC(=O)O)CC(=O)O)CC(=O)O [EDTA, ethylenediaminetetraacetic acid]
- content of extracellular ergothioneine in the filtrate ([1]; EDTA 0.5 g/L (highest)): 9.28 mg/L

Compound: OC(Cn1cncn1)(Cn1cncn1)c1ccc(F)cc1F [Fluconazole, reference compound]
- content of extracellular ergothioneine in the filtrate ([1]; Fluconazole 50 mg/L (highest)): 7.67 mg/L
- Content of ergothioneine in fermentation broth ([2]; Fluconazole 2 mg/L added in fermentation medium): 131.6 ± 1.92 mg/L
- Content of ergothioneine in fermentation broth ([2]; Fluconazole 5 mg/L added in fermentation medium): 137.2 ± 2.51 mg/L
- Content of ergothioneine in fermentation broth ([2]; Fluconazole 20 mg/L added in fermentation medium): 141.3 ± 3.27 mg/L
- Content of ergothioneine in fermentation broth ([2]; Fluconazole 50 mg/L added in fermentation medium): 146.4 mg/L and 146.4 ± 3.41 mg/L
- Content of ergothioneine in fermentation broth ([2]; Fluconazole 80 mg/L added in fermentation medium): 132.7 ± 3.39 mg/L
- activation at 50 µg/mL ([2]; Pleurotus ostreatus, CGMCC6232, 360 h, Fluconazole 50 mg/L, read-out: content of ergothioneine improved compared with control group): 19.6%

Compound: CC(=O)N1CCN(c2ccc(OCC3COC(Cn4ccnc4)(c4ccc(Cl)cc4Cl)O3)cc2)CC1 (centres unmarked) [Ketoconazole, reference compound]
- content of extracellular ergothioneine in the filtrate ([1]; Ketoconazole 50 mg/L (highest)): 5.77 mg/L
- Content of ergothioneine in fermentation broth ([2]; Ketoconazole 0.5 mg/L added in fermentation medium): 127.6 ± 1.06 mg/L
- Content of ergothioneine in fermentation broth ([2]; Ketoconazole 1 mg/L added in fermentation medium): 130.7 ± 2.22 mg/L
- Content of ergothioneine in fermentation broth ([2]; Ketoconazole 5 mg/L added in fermentation medium): 134.1 mg/L and 134.1 ± 2.99 mg/L
- Content of ergothioneine in fermentation broth ([2]; Ketoconazole 10 mg/L added in fermentation medium): 132.5 ± 1.87 mg/L
- Content of ergothioneine in fermentation broth ([2]; Ketoconazole 50 mg/L added in fermentation medium): 128.9 ± 1.18 mg/L
- activation at 5 µg/mL ([2]; Pleurotus ostreatus, CGMCC6232, 360 h, Ketoconazole 5 mg/L, read-out: content of ergothioneine improved compared with control group): 9.6%

Compound: Clc1ccc(COC(Cn2ccnc2)c2ccc(Cl)cc2Cl)c(Cl)c1 (centres unmarked) [Miconazole, reference compound]
- content of extracellular ergothioneine in the filtrate ([1]; Miconazole 50 mg/L (highest)): 9.14 mg/L
- Content of ergothioneine in fermentation broth ([2]; Miconazole 0.5 mg/L added in fermentation medium): 132.4 ± 2.96 mg/L
- Content of ergothioneine in fermentation broth ([2]; Miconazole 1 mg/L added in fermentation medium): 140.0 ± 3.28 mg/L
- Content of ergothioneine in fermentation broth ([2]; Miconazole 5 mg/L added in fermentation medium): 152.9 mg/L and 152.9 ± 4.22 mg/L
- Content of ergothioneine in fermentation broth ([2]; Miconazole 10 mg/L added in fermentation medium): 147.0 ± 3.09 mg/L
- Content of ergothioneine in fermentation broth ([2]; Miconazole 15 mg/L added in fermentation medium): 129.8 ± 2.11 mg/L
- activation at 5 µg/mL ([2]; Pleurotus ostreatus, CGMCC6232, 360 h, Miconazole 5 mg/L, read-out: content of ergothioneine improved compared with control group): 24.9%

Compound: C[S+](C)[O-] [dimethyl sulfoxide]
- content of extracellular ergothioneine in the filtrate ([1]; dimethyl sulfoxide 2% (V/V) (highest)): 10.18 mg/L

Compound: CC(C)O [isopropyl alcohol]
- content of extracellular ergothioneine in the filtrate ([1]; isopropyl alcohol 2% (V/V) (highest)): 10.04 mg/L

Compound: CC(=O)C(=O)O [pyruvic acid]
- activation at 2200 µg/mL ([2]; Pleurotus ostreatus, CGMCC6232, 360 h, pyruvic acid 2.2 g/L, read-out: content of ergothioneine improved compared with control group): 5.9%
- Content of ergothioneine in fermentation broth ([2]; pyruvic acid 0.05 g/L added in fermentation medium): 127.4 ± 0.57 mg/L
- Content of ergothioneine in fermentation broth ([2]; pyruvic acid 0.1 g/L added in fermentation medium): 128.6 ± 1.03 mg/L
- Content of ergothioneine in fermentation broth ([2]; pyruvic acid 0.5 g/L added in fermentation medium): 130.4 ± 0.82 mg/L
- Content of ergothioneine in fermentation broth ([2]; pyruvic acid 1.0 g/L added in fermentation medium): 131.9 ± 1.43 mg/L
- Content of ergothioneine in fermentation broth ([2]; pyruvic acid 2.2 g/L added in fermentation medium): 132.7 mg/L and 132.7 ± 0.46 mg/L
- Content of ergothioneine in fermentation broth ([2]; pyruvic acid 4.5 g/L added in fermentation medium): 128.7 ± 0.69 mg/L

Compound: CCCCCCCC/C=C\CCCCCCCC(=O)OCCOCC(OCCO)C1OCC(OCCO)C1OCCO (centres unmarked) [tween 80]
- content of extracellular ergothioneine in the filtrate ([1]; tween 80 10 g/L (highest)): 18.72 mg/L
- activation at 10000 µg/mL ([2]; Pleurotus ostreatus, CGMCC6232, 360 h, tween 80 10 g/L, read-out: content of ergothioneine improved compared with control group): 78.5%
- Content of ergothioneine in fermentation broth ([2]; tween 80 0.5 g/L added in fermentation medium): 130.2 ± 1.56 mg/L
- Content of ergothioneine in fermentation broth ([2]; tween 80 2 g/L added in fermentation medium): 155.9 ± 2.7 mg/L
- Content of ergothioneine in fermentation broth ([2]; tween 80 5 g/L added in fermentation medium): 181.8 ± 3.95 mg/L
- Content of ergothioneine in fermentation broth ([2]; tween 80 10 g/L added in fermentation medium): 217 mg/L and 217 ± 4.37 mg/L
- Content of ergothioneine in fermentation broth ([2]; tween 80 20 g/L added in fermentation medium): 170.9 ± 4.43 mg/L
- Content of ergothioneine in fermentation broth ([2]; tween 80 40 g/L added in fermentation medium): 130.9 ± 1.61 mg/L

Compound: NH4NO3
- Content of ergothioneine in fermentation broth [2]: 127.2 ± 1.18 mg/L and 134 ± 2.46 mg/L and 140.7 ± 3.74 mg/L and 148 ± 0.82 mg/L and 141.4 ± 1.98 mg/L and 129.7 ± 1.03 mg/L
- content of ergothioneine improved compared with control group [2]: 18.5%

Compound: span 80
- Content of ergothioneine in fermentation broth ([2]; span 80 0.2 g/L added in fermentation medium): 124.7 ± 2.59 mg/L
- Content of ergothioneine in fermentation broth ([2]; span 80 0.5 g/L added in fermentation medium): 156.3 ± 1.92 mg/L
- Content of ergothioneine in fermentation broth ([2]; span 80 1 g/L added in fermentation medium): 175.1 ± 2.83 mg/L
- content of ergothioneine improved compared with control group ([2]; span 80 3 g/L): 69.7%
- Content of ergothioneine in fermentation broth ([2]; span 80 3 g/L added in fermentation medium): 196.5 mg/L and 196.5 ± 3.54 mg/L
- Content of ergothioneine in fermentation broth ([2]; span 80 5 g/L added in fermentation medium): 184.3 ± 3.7 mg/L
- Content of ergothioneine in fermentation broth ([2]; span 80 10 g/L added in fermentation medium): 129.6 ± 1.18 mg/L

Compound: tween 60
- content of extracellular ergothioneine in the filtrate ([1]; tween 60 5 g/L (highest)): 16.24 mg/L
- Content of ergothioneine in fermentation broth ([2]; tween 60 2 g/L added in fermentation medium): 128.8 ± 1.51 mg/L
- Content of ergothioneine in fermentation broth ([2]; tween 60 5 g/L added in fermentation medium): 173.6 ± 2.98 mg/L
- content of ergothioneine improved compared with control group ([2]; tween 60 10 g/L): 74.9%
- Content of ergothioneine in fermentation broth ([2]; tween 60 10 g/L added in fermentation medium): 212.7 mg/L and 212.7 ± 4.52 mg/L
- Content of ergothioneine in fermentation broth ([2]; tween 60 20 g/L added in fermentation medium): 184.4 ± 3.78 mg/L
- Content of ergothioneine in fermentation broth ([2]; tween 60 40 g/L added in fermentation medium): 154.2 ± 2.63 mg/L
- Content of ergothioneine in fermentation broth ([2]; tween 60 50 g/L added in fermentation medium): 129.1 ± 2.1 mg/L
